Assay results from paper PMC10261210 (Cancer Chemotherapy and Pharmacology, 2023).
Entries after “also recorded” stand apart in the source; their conditions may differ. Read-outs that look alike come from different tables or passages of the source.

Assays:
[1] = system: relapsed or refractory advanced solid tumors, melanoma; experiment: response by investigator assessment (RECIST 1.1); type: in vivo, human
Excerpt: Adverse events were coded using the Medical Dictionary for Regulatory Activities (MedDRA) Version 19.0 and were graded according to the National Cancer Institute (NCI) Common Terminology Criteria (CTC) for adverse events (CTCAE) (Version 4.03). The assessment period for treatment emergent adverse events (TEAEs) was from the first dose of study treatment to 30 days after the last dose of study medication, or until the start of subsequent antineoplastic therapy, whichever occurred first. Following baseline evaluation, response was assessed by investigators every two cycles by computed tomography or magnetic resonance imaging according to Response Evaluation Criteria in Solid Tumors (version 1.1).
The safety population was defined as all patients who received any amount of tovorafenib. The DLT-evaluable population was defined as all patients in the dose escalation phase of the study who either experienced DLT during cycle 1 or who completed at least 75% of the planned doses and had sufficient follow-up data to allow the investigators and sponsor to determine whether DLT had occurred. […] The PK-evaluable population included all patients who had sufficient dosing data and concentration–time data to permit calculation of PK parameters.

[2] = plasma pharmacokinetics (LC–MS/MS, noncompartmental analysis); type: in vivo, human; details: for Tmax / AUC / Cmax / half-life: human, plasma; for Cmax: read-out: Cmax, geometric mean (%CV); for half-life: read-out: t1/2z, mean (range) (converted)
Method: In addition, for patients on Q2D schedules, predose or trough samples were collected on days 9 and 15 (Q2D dosing) or days 8 and 15 (QW dosing) to evaluate time to steady state. […] Plasma concentration–time analysis was performed using noncompartmental analysis. The plasma PK parameters were estimated using a validated version of Phoenix WinNonlin software (Version 6.3 or above, Pharsight Corporation, Raleigh, NC). Terminal half-life was calculated based on the equation: t1/2 = ln2/kel (kel = elimination rate constant determined by linear regression analysis of selected time points in the apparent terminal phase of the log plasma concentration versus time curve).

BRAF V600E mutant = system: BRAF V600E mutant; design: method as in doi:10.1016/S1359-6349(10)71810-3; details: preclinical studies; cited from earlier work
[3] = system: neural progenitor cells transformed with KIAA1549-BRAF fusion protein; design: method as in PMID 28082416; details: cited from earlier work
[4] = dose expansion Cohort 9, NRAS+ Naïve, QW n = 17
[5] = dose expansion, Q2D n=68 (melanoma cohorts, PK cohort, unknown)
[6] = po, 400 mg, 400 mg QW oral, cycle 1 day 22, plasma, n 3
[7] = po, 600 mg, 600 mg QW oral, cycle 1 day 22, plasma, n 20
[8] = po, 800 mg, 800 mg QW oral, cycle 1 day 22, plasma, n 3

Structure (SMILES): C[C@@H](NC(=O)c1ncnc(N)c1Cl)c1ncc(C(=O)Nc2cc(C(F)(F)F)c(Cl)cn2)s1 [tovorafenib]
- Best overall response: Partial response [1, 4]: 0 n (%)
- Best overall response: Progressive disease [1, 4]: 8 (47) n (%)
- Best overall response: Stable disease [1, 4]: 9 (53) n (%)
- Objective response rate [1, 4]: 0 n (%)
- Best overall response: Complete response [1, 5]: 0 n (%)
- Best overall response: Partial response [1, 5]: 10 (15) n (%)
- Best overall response: Progressive disease [1, 5]: 37 (54) n (%)
- Best overall response: Stable disease [1, 5]: 21 (31) n (%)
- Objective response rate [1, 5]: 10 (15) n (%)
- Best overall response: Complete response ([1]; dose expansion, QW n=17): 0 n (%)
- Best overall response: Partial response ([1]; dose expansion, QW n=17): 0 n (%)
- Best overall response: Progressive disease ([1]; dose expansion, QW n=17): 8 (47) n (%)
- Best overall response: Stable disease ([1]; dose expansion, QW n=17): 9 (53) n (%)
- Objective response rate ([1]; dose expansion, QW n=17): 0 n (%)
- Best overall response: Complete response ([1]; dose expansion, Total n=85): 0 n (%)
- Best overall response: Partial response ([1]; dose expansion, Total n=85): 10 (12) n (%)
- Best overall response: Progressive disease ([1]; dose expansion, Total n=85): 45 (53) n (%)
- Best overall response: Stable disease ([1]; dose expansion, Total n=85): 30 (35) n (%)
- Objective response rate ([1]; dose expansion, Total n=85): 10 (12) n (%)
- dose dependence of steady-state AUC48 ([2]; 20 mg to 280 mg Q2D): approximately dose-proportional
- dose dependence of steady-state exposure (AUC168) ([2]; 400 mg to 800 mg QW): approximately dose-proportional
- power model coefficient, dose versus steady-state AUC168 ([2]; 400 mg to 800 mg QW, cycle 1 day 22, 95% CI 0.55–2.04): 1.30
- geometric mean Rauc ([2]; Q2D dosing regimen at 200 mg): ~ 2.55
- Tmax ([2]; oral, post-dose, Q2D and QW, read-out: overall median Tmax): 2 to 4 h
- AUC ([2]; po, 20 mg, 20 mg Q2D oral, cycle 1 day 21, plasma, n 3, read-out: AUC48, geometric mean (%CV)): 10.4 µg·h/mL
- Cmax ([2]; po, 20 mg, 20 mg Q2D oral, cycle 1 day 21, plasma, n 3): 0.302 µg/mL
- Tmax ([2]; po, 20 mg, 20 mg Q2D oral, cycle 1 day 21, plasma, n 3, read-out: tmax, median (min, max)): 2 h
- AUC ([2]; po, 40 mg, 40 mg Q2D oral, cycle 1 day 21, plasma, n 2, read-out: AUC48, geometric mean (%CV)): 20.9 µg·h/mL
- Cmax ([2]; po, 40 mg, 40 mg Q2D oral, cycle 1 day 21, plasma, n 2): 0.76 µg/mL
- Tmax ([2]; po, 40 mg, 40 mg Q2D oral, cycle 1 day 21, plasma, n 2, read-out: tmax, median (min, max)): 3 h
- AUC ([2]; po, 80 mg, 80 mg Q2D oral, cycle 1 day 21, plasma, n 3, read-out: AUC48, geometric mean (%CV)): 42.7 µg·h/mL
- Cmax ([2]; po, 80 mg, 80 mg Q2D oral, cycle 1 day 21, plasma, n 3): 2.04 µg/mL
- Tmax ([2]; po, 80 mg, 80 mg Q2D oral, cycle 1 day 21, plasma, n 3, read-out: tmax, median (min, max)): 4 h
- AUC ([2]; po, 135 mg, 135 mg Q2D oral, cycle 1 day 21, plasma, n 3, read-out: AUC48, geometric mean (%CV)): 96.8 µg·h/mL
- Cmax ([2]; po, 135 mg, 135 mg Q2D oral, cycle 1 day 21, plasma, n 3): 3.32 µg/mL
- Tmax ([2]; po, 135 mg, 135 mg Q2D oral, cycle 1 day 21, plasma, n 3, read-out: tmax, median (min, max)): 2 h
- AUC ([2]; po, 200 mg, 200 mg (n=7) Q2D oral, cycle 1 day 21, plasma, n 6, read-out: AUC48, geometric mean (%CV)): 118 µg·h/mL
- Cmax ([2]; po, 200 mg, 200 mg (n=7) Q2D oral, cycle 1 day 21, plasma, n 6): 3.81 µg/mL
- Tmax ([2]; po, 200 mg, 200 mg (n=7) Q2D oral, cycle 1 day 21, plasma, n 6, read-out: tmax, median (min, max)): 3 h
- AUC ([2]; po, 200 mg, 200 mg (n=23; PK expansion cohort and 28-day cycle cohort) Q2D oral, cycle 1 day 21, plasma, n 14, read-out: AUC48, geometric mean (%CV)): 127 µg·h/mL
- Cmax ([2]; po, 200 mg, 200 mg (n=23; PK expansion cohort and 28-day cycle cohort) Q2D oral, cycle 1 day 21, plasma, n 14): 3.68 µg/mL
- Tmax ([2]; po, 200 mg, 200 mg (n=23; PK expansion cohort and 28-day cycle cohort) Q2D oral, cycle 1 day 21, plasma, n 14, read-out: tmax, median (min, max)): 2 h
- AUC ([2]; po, 280 mg, 280 mg Q2D oral, cycle 1 day 21, plasma, n 4, read-out: AUC48, geometric mean (%CV)): 155 µg·h/mL
- Cmax ([2]; po, 280 mg, 280 mg Q2D oral, cycle 1 day 21, plasma, n 4): 4.06 µg/mL
- Tmax ([2]; po, 280 mg, 280 mg Q2D oral, cycle 1 day 21, plasma, n 4, read-out: tmax, median (min, max)): 3 h
- AUC ([2]; po, 400 mg, 400 mg QW oral, cycle 1 day 22, plasma, n 3, read-out: AUC168, geometric mean (%CV)): 193 µg·h/mL
- Cmax [2, 6]: 3.14 µg/mL
- Tmax ([2]; po, 400 mg, 400 mg QW oral, cycle 1 day 22, plasma, n 3, read-out: Tmax, median (min, max)): 3 h
- half-life [2, 6]: 52 h
- AUC ([2]; po, 600 mg, 600 mg QW oral, cycle 1 day 22, plasma, n 20, read-out: AUC168, geometric mean (%CV)): 330 µg·h/mL
- Cmax [2, 7]: 5.65 µg/mL
- Tmax ([2]; po, 600 mg, 600 mg QW oral, cycle 1 day 22, plasma, n 20, read-out: Tmax, median (min, max)): 3 h
- half-life [2, 7]: ~70 h
- AUC ([2]; po, 800 mg, 800 mg QW oral, cycle 1 day 22, plasma, n 3, read-out: AUC168, geometric mean (%CV)): 473 µg·h/mL
- Cmax [2, 8]: 6.46 µg/mL
- Tmax ([2]; po, 800 mg, 800 mg QW oral, cycle 1 day 22, plasma, n 3, read-out: Tmax, median (min, max)): 4 h
- half-life [2, 8]: 68.1 h
- accumulation in systemic circulation (day 22 AUC168 over day 1 AUC168) ([2]; repeated QW dosing, 400–800 mg): minimal accumulation; also recorded: Minimal to no apparent accumulation
- IC50 (BRAF V600E mutant): 7.1 nM
- paradoxical activation of ERK signaling [3]: not to trigger paradoxical activation of ERK signaling
